Like-named read-outs stand apart in the source and are kept apart here.
System: NFE2L1 pathway
Assay: 3×PSMA4-ARE-LUC dual luciferase reporter assay in HEK293 cells
Type: cell-based, human
Conditions: for EC50 / fold induction at 5 µM: Homo sapiens; for EC50: HEK293; for fold induction at 5 µM: 16 h, HEK293, luminescence relative to DMSO-treated cells, read-out: NFE2L1 activation [5 μM]
Outline: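 HEK293 cells carrying the 3×PSMA4-ARE luciferase reporter (with pRL-TK) were treated with compounds for 16 h, then luciferase activity was measured. Values are fold change in luminescence over DMSO-treated cells; EC50 from four-parameter logistic or bell-shaped fits with 1/Y^2 weighting.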

[1] = Bell-shaped fit, X is concentration, weighting 1/Y^2, Fig. S1
[2] = Bell-shaped fit, X is concentration, weighting 1/Y^2, Fig. S1, read-out: EC50_1 (best-fit)
[3] = PSMA4-ARE-luc2P reporter, four-parameter logistic or bell-shaped model, order of models not stated, read-out: EC50
[4] = PSMA4-ARE-luc2P reporter, four-parameter logistic or bell-shaped model, order of models not stated, read-out: EC50 (first value)
[5] = [Agonist] vs. Response, variable slope (four parameters), weighting 1/Y^2, Fig. S1

| Structure (SMILES) | Dip (best-fit) [1] | Plateau1 (best-fit) [1] | Plateau2 (best-fit) [1] | nH1 (best-fit) [1] | nH2 (best-fit) [1] | EC50 [2] [µM] | EC50 [3] [µM] | EC50 [4] [µM] | EC50 ([Agonist] vs. Response, variable slope (four parameters), weighting 1/Y^2, Fig. S1, read-out: EC50 (best-fit)) [µM] | fold induction at 5 µM | Bottom (best-fit) [5] | Hillslope (best-fit) [5] | Span (best-fit) [5] | Top (best-fit) [5] | logEC50 (best-fit) [5] |
| --- | --- | --- | --- | --- | --- | --- | --- | --- | --- | --- | --- | --- | --- | --- | --- |
| COc1ccc(/C=C2\CC(NC(=O)c3ccccn3)C/C(=C\c3ccc(OC)c(OC)c3)C2=O)cc1OC (stereo not drawn) [RUN-94] | 8.602 | -2.174 | 11.95 | Unstable | 18.05 | 3.8 | 3.8 | 3.8 | 3.79 | 19.4 | 1.13 | 55.77 | 9.24 | 10.37 | 0.58 |
| COc1ccc(/C=C2\CC(NC(=O)C3CCCC3)C/C(=C\c3ccc(OC)c(OC)c3)C2=O)cc1OC (stereo not drawn) [RUN-89] | 19.12 | 1.124 | 5.392 | -4.123 | -7.321 | 4.89 | 4.9 | 3.1 | – | 11.7 | 1.08 | 7.14 | 6.12 | 7.20 | 0.49 |
| COc1ccc(/C=C2\CC(N)C/C(=C\c3ccc(OC)c(OC)c3)C2=O)cc1OC (stereo not drawn) [RUN-81] | – | – | – | – | – | – | – | 10.4 | – | 2.1 | 0.95 | 2.70 | 18.71 | 19.66 | 1.02 |
